According to patent publication US20250171776A1, “NON-CANONICAL CELL-PENETRATING PEPTIDES FOR ANTISENSE OLIGOMER DELIVERY” (priority 2023, published 2025):
Read-outs that look alike come from different tables or passages of the source. Where no end group is shown, it is not given here. [ ]: non-standard residue; d: D form. 2Nal = N[C@@H](Cc1ccc2ccccc2c1)C(=O)O; Cit = NC(=O)NCCC[C@H](N)C(=O)O; Api = NC1(C(=O)O)CCNCC1; Dab = NCC[C@H](N)C(=O)O; Iph = iodophenylalanine

Tests used:
[1] = test system: HeLa 654 cells; experiment: HeLa 654 eGFP assay (flow cytometry, mean eGFP fluorescence, 22 h); type: cell-based; conditions: for PMO delivery: eGFP fluorescence relative to PMO alone: 20 μM, HeLa 654 cells, flow cytometry; for PMO delivery at varying concentrations (mean eGFP fluorescence relative to vehicle): 1, 2.5, 5, 10, 25 or 50 μM; for PMO delivery at varying concentrations (mean eGFP fluorescence relative to vehicle) / PMO response (mean eGFP fluorescence relative to vehicle) / PMO delivery (mean eGFP fluorescence relative to vehicle): 22 h; for PMO response (mean eGFP fluorescence relative to vehicle): 2.5 μM, segment-CXP1 conjugates; for PMO delivery (mean eGFP fluorescence relative to vehicle): 1 μM
Procedure: Purified constructs were then tested using an activity-based readout in which nuclear delivery results in fluorescence. Briefly, HeLa cells stably transfected with an Enhanced Green Fluorescent Protein (eGFP) gene interrupted by a mutated intron of β-globin (IVS2-654) produce a non-fluorescent eGFP protein. As used herein, Hela-654 cells refers to the Hela cells transfected with an Enhanced Green Fluorescent Protein (eGFP) gene interrupted by a mutated intron of β-globin (IVS2-654) and Hela-654 eGFP Assay is used to refer to an Assay that uses the Hela-654 cells. Successful delivery of PMO IVS2-654 to the nucleus results in corrective splicing and eGFP synthesis.
The amount of PMO delivered to the nucleus is therefore correlated with eGFP fluorescence, quantified by flow cytometry. Activity was reported as mean fluorescence intensity (MFI) relative to PMO alone. This activity assay provides indirect information on how much active PMO is delivered to the nucleus. Relative efficiency of a PMO-CPP conjugate was characterized by comparing activity to internal concentration.
[…] 18 h prior to treatment, the cells were plated at a density of 5,000 cells per well in a 96-well plate in DMEM supplemented with 10% FBS and 1% penicillin-streptomycin.
For individual peptide testing, PPMOs were dissolved in phosphate buffered saline (PBS) without Ca^2+ or Mg^2+ at a concentration of 1 mM (determined by UV absorbance of the PMO) before being diluted in Dulbecco's modified eagle medium (DMEM). Cells were incubated at the designated concentrations in triplicate for 22 h at 37° C. and 5% CO2. Next, the treatment media was removed, and the cells were washed once before being incubated with 0.25% Trypsin-EDTA for 15 min at 37° C. and 5% CO2. Lifted cells were transferred to a V-bottom 96-well plate and washed once with PBS, before being resuspended in PBS containing 2% FBS and 2 μg/mL propidium iodide (PI). Flow cytometry analysis was carried out on a BD LSRII flow cytometer. Gates were applied to the data to ensure that cells that were positive for propidium iodide or had forward/side scatter readings that were sufficiently different from the main cell population were excluded. Each sample was capped at 5,000 gated events.
Analysis was conducted using Graphpad Prism 7 and FlowJo. For each sample, the mean fluorescence intensity (MFI) and the number of gated cells were measured. To report activity, triplicate MFI values were averaged and normalized to the PMO alone condition.

[2] = test system: HELA-654 cells; experiment: Hela-654 eGFP assay (incucyte imaging, GFP positive cells, 72 h); type: cell-based; conditions: 72 h
Procedure: HELA-654 cells were imaged at 72 hours with an incucyte and the number of GFP positive cells versus total cell counts were calculated with the incucyte image analysis software. Statistical analysis was conducted using a one-way analysis of variance (ANOVA) test with Dunnett's multiple comparison test. Bars represent mean±standard deviation (SD), with P<0.05 was considered to indicate statistical significance, (**** p<0.0001, *** […], ** p<0.01, * p<0.05).
HELA-654 cells were imaged at 72 hours with an incucyte and the number of GFP positive cells versus total cell counts were calculated with the incucyte image analysis software.

[3] = test system: HeLa 654 cells; experiment: Lactate dehydrogenase (LDH) release assay in HeLa 654 cells; type: cell-based
Procedure: (§1) The media from the cells was analyzed for LDH release with an LDH assay and the percentage of LDH release was calculated relative to fully lysed cells.
(§2) Cytotoxicity assays were performed in HeLa 654 cells or TH-1 renal cells. TH-1 cells were maintained in DMEM supplemented with 10% (v/v) fetal bovine serum (FBS) and 1% (v/v) penicillin-streptomycin at 37° C. and 5% CO2H-1. Cells were plated at 5,000 cells/well in a 96-well plate 18-hours prior to treatment and treated with PMO-peptide compounds as described above. HeLa cell LDH assays were performed concurrently on the cells treated for Flow cytometry, so all plating and treatment protocols match those described above.
(§3) 17 hours after cell treatment, the Promega CytoTox lysis solution was added to 3 wells of each plate as a fully lysed control (100% LDH-release). 18 hours after treatment, cell supernatant was transferred to a new 96-well plate for analysis of LDH release. To each well of the 96-well plate containing supernatant was added CytoTox 96 Reagent (Promega). […] Equal volume of Stop Solution was added to each well, mixed, and the absorbance of each well was measured at 490 nm. The measurement of vehicle-treated cells was subtracted from each measurement, and % LDH release was calculated as % cytotoxicity=100×Experimental LDH Release (OD490)/Maximum LDH Release (OD490).

[4] = test system: eGFP-654 mice; experiment: eGFP-654 mouse study: GFP fluorescence in tissue homogenates; type: in vivo; conditions: 20 mg/kg intravenous, tissues collected weekly for 8 weeks
Procedure: The tissues from a series of organs were homogenized and GFP fluorescence was measured with a spectrophotometer and normalized to tissue quantity (FIG. 9-17). Median effective dose (ED50) was also derived from the dose-response curve. PMO-CXP1 compound exposure was calculated with an enzyme-linked oligonucleotide hybridization assay (ELOHA). Briefly, the ELOHA assay is a two-step hybridization assay where the analyte is bound to both an immobilized capture probe and biotinylated detection probe. Streptavidin-AP-conjugate is added to the mixture and AttoPhos substrate is added to the system and incubated for 10 minutes. Stop solution is added and the plate is read on the spectrophotometer. The compound concentrations were determined from a standard curve. […] Compound efficacy and exposure were calculated in the quadriceps (FIGS. 9-10), heart (FIGS. 11-12), diaphragm (FIGS. 13-14), and kidney (FIGS. 15-16). The compound was also found to have efficacy for up to 56 days in vivo (FIG. 17).
PPMOs at 3 mg/kg were intravenously delivered to eGFP-654 mice. […] The tissues were homogenized and GFP fluorescence measurements were read for a fluorescence spectrophotometer and normalized to tissue quantity to measure efficacy (FIGS. 26-29). Compound efficacy and exposure were calculated in the quadriceps (FIG. 26), heart (FIG. 27), diaphragm (FIG. 28), and kidney (FIG. 29).

[5] = test system: TH-1 renal cells; experiment: Lactate dehydrogenase (LDH) release assay in TH-1 renal cells; type: cell-based; conditions: LDH release at 18 hours
Procedure: as §1, §2, §3

[6] = chimeric peptide PMO conjugates, read-out: EC50 (at 72 h)
[7] = CXP1 analogs (unnatural amino acids replaced), read-out: EC50 (72 h)

Substance	PMO delivery: eGFP fluorescence relative to PMO alone [1]	PMO delivery at varying concentrations (mean eGFP fluorescence relative to vehicle) [1]	EC50 ([2]; read-out: EC50 (at 72 h)) [µM]	EC50 [2, 6] [µM]	also measured
Asn-Phe-Lys-Gln-Nap-His-Ala-Gly-Dab-Arg-Lys-Trp-Lys-Lys (NFKQ[2Nal]HAG[Dab]RKWKK; also: PMO conjugate) [PMO-CXP2]	high levels of PMO delivery	dose-dependent delivery of PMO	11.5		
Cit-Met-Phe-Gly-Pip-Dab-Dab-Lys-Ala-Pro-Lys-Trp-Lys-Lys ([Cit]MFG[Api][Dab][Dab]KAPKWKK; also: PMO conjugate) [PMO-CXP4]	high levels of PMO delivery	dose-dependent delivery of PMO	4.57		
Iph-Gly-Arg-Gly-Pip-Lys-Gln-Lys-Thr-Ser-Iph-Gly-Arg-Gly-Pip-Lys-Trp-Lys-Lys ([Iph]GRG[Api]KQKTS[Iph]GRG[Api]KWKK; also: PMO conjugate) [SA-CXP1]				1.57	PMO response (mean eGFP fluorescence relative to vehicle) [1]: highest PMO response compared to the other segment-CXP1 sequences; Toxicity: LDH release ([3]; 25 μM): toxicity closest to the parent CXP1-CXP1 peptide
Lys-Gln-Lys-Thr-Ser-Iph-Gly-Arg-Gly-Pip-Lys-Trp-Lys-Lys (KQKTS[Iph]GRG[Api]KWKK-NH2; also: PMO conjugated via DBCO linker) [PMO-CXP1]	high levels of PMO delivery	dose-dependent delivery of PMO	7.08		Duration of efficacy in vivo [4]: up to 56 days
Lys-Gln-Lys-Thr-Ser-Iph-Gly-Arg-Lys-Trp-Lys-Gln-Lys-Thr-Ser-Iph-Gly-Arg-Lys-Trp-Lys-Lys (KQKTS[Iph]GRKWKQKTS[Iph]GRKWKK; not fully specified (N-terminus, C-terminus); printed as Lys-Gln-Lys-Thr-Ser-Iph-Gly-Arg-Lys-Trp-Lys-Gln-Lys-Thr-Ser-Iph-Gly-Arg-Lys-Trp-Lys-Lys; also: PMO IVS2-654 conjugate) [CXD1B]				3.54	Therapeutic window (HeLa-654 eGFP efficacy versus LDH release in TH-1 renal cells) [5]: wider therapeutic window in comparison to other PMO-peptide conjugates; PMO delivery (mean eGFP fluorescence relative to vehicle) [1]: high PMO delivery; Toxicity: LDH release ([3]; 50 μM): lower toxicity than the CXP1-CXP1 sequence
Lys-Gln-Lys-Thr-Ser-Iph-Gly-Lys-Gly-Pip-Lys-Trp-Lys-Lys (KQKTS[Iph]GKG[Api]KWKK; not fully specified (C-terminus); printed as Lys-Gln-Lys-Thr-Ser-Iph-Gly-Lys-Gly-Pip-Lys-Trp-Lys-Lys; also: PMO conjugate) [PMO-CXP1AA]					EC50 [2, 7]: 13.1 µM
Lys-Gln-Lys-Thr-Ser-Lys-Gln-Lys-Thr-Ser-Iph-Gly-Arg-Gly-Pip-Lys-Trp-Lys-Lys (KQKTSKQKTS[Iph]GRG[Api]KWKK; not fully specified (C-terminus); printed as Lys-Gln-Lys-Thr-Ser-Lys-Gln-Lys-Thr-Ser-Iph-Gly-Arg-Gly-Pip-Lys-Trp-Lys-Lys; also: PMO conjugate) [SC-CXP1]				4.01	
Lys-Gln-Lys-Thr-Ser-Phe-Gly-Arg-Gly-Lys-Lys-Trp-Lys-Lys (KQKTSFGRGKKWKK; also: PMO conjugate) [PMO-CXP1Z]					EC50 [2, 7]: 21.1 µM
Lys-Gln-Lys-Thr-Ser-Phe-Gly-Arg-Gly-Pip-Lys-Trp-Lys-Lys (KQKTSFGRG[Api]KWKK; not fully specified (C-terminus); printed as Lys-Gln-Lys-Thr-Ser-Phe-Gly-Arg-Gly-Pip-Lys-Trp-Lys-Lys; also: PMO conjugate) [PMO-CXP1X]					EC50 [2, 7]: 17.4 µM
Lys-Thr-Ser-Iph-Gly-Arg-Lys-Gln-Lys-Thr-Ser-Iph-Gly-Arg-Gly-Pip-Lys-Trp-Lys-Lys (KTS[Iph]GRKQKTS[Iph]GRG[Api]KWKK; not fully specified (C-terminus); printed as Lys-Thr-Ser-Iph-Gly-Arg-Lys-Gln-Lys-Thr-Ser-Iph-Gly-Arg-Gly-Pip-Lys-Trp-Lys-Lys; also: PMO conjugate) [SB-CXP1]				2.08	PMO response (mean eGFP fluorescence relative to vehicle) [1]: highest PMO response compared to the other segment-CXP1 sequences
Lys-Thr-Ser-Iph-Gly-Arg-Lys-Gln-Lys-Thr-Ser-Iph-Gly-Arg-Lys-Trp-Lys-Lys (KTS[Iph]GRKQKTS[Iph]GRKWKK; not fully specified (N-terminus, C-terminus); printed as Lys-Thr-Ser-Iph-Gly-Arg-Lys-Gln-Lys-Thr-Ser-Iph-Gly-Arg-Lys-Trp-Lys-Lys; also: PMO IVS2-654 conjugate) [CXD1A]				3.35	PMO delivery (mean eGFP fluorescence relative to vehicle) [1]: high PMO delivery
Lys-Trp-Lys-Lys-Gln-Lys-Thr-Ser-Iph-Gly-Arg-Gly-Pip-Lys-Trp-Lys-Lys (KWKKQKTS[Iph]GRG[Api]KWKK; not fully specified (N-terminus, C-terminus); printed as Lys-Trp-Lys-Lys-Gln-Lys-Thr-Ser-Iph-Gly-Arg-Gly-Pip-Lys-Trp-Lys-Lys; also: PMO conjugate) [SD-CXP1]				2.28	
[Dab]VARNN[Dab]TKGKWKK [PMO-CXP3]	high levels of PMO delivery	dose-dependent delivery of PMO	13.8		
